Source: patent publication US11045833B2, “Task specific ionic liquid-impregnated polymeric surface coatings for antibacterial, antifouling, and metal scavenging activity” (Massachusetts Institute of Technology, priority 2017, dated 2021)

Assays:
Pseudomonas aeruginosa = test: Biofilm formation in flow cell with CVD polymer coating, inoculated medium flowed through; type: cell-based; settings: IL encapsulated in CVD polymer film on flow cell; medium inoculated with P. aeruginosa
From the text: Chemical vapor deposition (CVD) was used to cross-link a polymer and bind it to a flow cell surface using in a custom built vacuum reactor (Sharon Vacuum) previously described (Martin, T. P. et al. Biomaterials 2007, 28, 909-915; and Ozaydin-Ince, G. et al. J. Vac. Sci. Technol., A 2009, 27, 1135-1143). During CVD depositions, tert-butyl peroxide (TBPO) and monomers N,N-dimethylacrylamide ([…], FIG. 2A) and di(ethylene glycol) divinyl ether (DEGDVE, FIG. 2B) were introduced into the CVD reactor through mass flow controllers (1479 MFC, MKS Instruments). The grafting agent was trichlorovinylsilane (FIG. 2C), which covalently grafted the polymer network onto the surface via silanization. DMMA, which was the repeating unit in the polymer chains, was introduced into the chamber at a rate of about 2.8 mL/min. The crosslinker DEGDVE, which linked different polymer chains, was introduced into the chamber at a rate of 0.3 mL/min. The initiator TBPO was introduced into the chamber at a rate of about 1.0 mL/min. The substrate temperature was about 30° C., and the chamber pressure was about 400 mTorr. The ionic liquid was N-hexylethylenediaminium bis([…])amide, [HHex][Tf2N] (FIG. 1).
A flow cell had the bottom side CVD coated by the polymer as described in Example 2. One cell had the polymer film impregnated by an IL ([HHex][Tf2N]). […]

[1] = Ionic liquid leaching from ionogel by ICP mass spectrometry; type: physicochemical; settings: IL trapped in ionogel
[2] = Desorption of polymer and ionic liquid from coated glass slides in water; type: physicochemical; settings: after a day in water

Substance: N-hexylethylenediaminium bis(trifluoroethanesulfonyl)amide [[HHex][Tf2N]]
- biofilm growth (Pseudomonas aeruginosa): no biofilm growth
- ionic liquid leaching over time [1]: lack of ionic liquid leaching over time
- desorption of polymer and ionic liquid [2]: have not desorbed
